According to a melting point compilation (Tetko et al.; mined from patent text by program, amines drawn as free bases though some values may be those of a salt):

Row | SMILES | melting point [°C]
1 | O=[N+]([O-])c1cc(CS(=O)(=O)Cc2ccc(O)c([N+](=O)[O-])c2)ccc1O | 166 to 168
2 | Cc1cccc(C(=O)Nc2ccc(C(=O)N3Cc4cccn4Cc4ccccc43)cc2)c1C | 168 to 170
3 | Cc1cc(-c2ccccc2)n2nc(Cl)nc2n1 | 179 to 181
4 | O=C(O)c1ccccc1-c1cc(-c2ccccc2)[nH]n1 | 204 to 206
5 | CCOC(=O)CCCN1CCN(C2=Nc3ccccc3Oc3ccc(Cl)cc32)CC1 | 86 to 87
6 | COc1ccc2ccccc2c1-c1cc2c(c(-c3ccccc3)c1P(=O)(c1ccccc1)c1ccccc1)COC2 | 129 to 131
7 | CS(=O)(=O)c1c(C(=O)NN=Cc2ccc3ccccc3c2)[nH]c2ccccc12 | > 250
8 | CC(C)CC1(C(CCN2C(=O)c3ccc(N)cc3C2=O)C(=O)NO)CCN(CCc2ccccc2)C1=O (centres undefined) | 187 to 188
9 | Cc1nc2nc(/C=C3/C(=O)N4C(C(=O)O)=CS[C@H]34)nn2c2c1CCCC2 | 250
10 | N#Cc1cccc(C2=Nc3cc(CO)c(C#Cc4ccccc4)cc3NC(=O)C2)c1 | > 255
11 | CCCOC(=O)C1=C(C)NC(C)=C(C(=O)OCC2CC2)C1c1cccc([N+](=O)[O-])c1 (centres undefined) | 167 to 168
12 | CN(C(=O)c1ccc([N+](=O)[O-])cc1)C1N(C)C(c2ccc(F)cc2)=NC1(C(F)(F)F)C(F)(F)F (centres undefined) | 174 to 175
13 | O=c1[nH]c(=O)n(C2CC(Br)C(CBr)O2)cc1C=CBr (centres undefined) | 153
14 | C#Cc1cnc2ccc(OC(SC)C(=O)NC(C)(C#C)CO)cc2c1 (centres undefined) | 149 to 150
15 | O=c1oc2c(I)cc(I)cc2s1 | 155 to 157
16 | COc1ccc2c(c1)C(c1ccccc1)C(=O)NCC2 (centres undefined) | 155 to 170
17 | O=[N+]([O-])c1cc(CSC2OC(CO)C(OC3OC4COC(c5ccccc5)OC4C(O)C3O)C(O)C2O)ccc1Cl (centres undefined) | 120 to 122
18 | Cc1[nH]c(=S)n(Nc2cccc(Cl)c2)c1C(=O)O | 166 to 168
19 | NC1=NN(c2cccc(Cl)n2)C(c2ccc(Cl)cc2)C1 (centres undefined) | 157 to 158
20 | CCCCCCCCCCCCCCCCCCNC(=O)NCCCS(C)=O (centres undefined) | 105
21 | CCCCCCCCCCCCCCc1cccc(O)c1 | 38 to 40
22 | COc1ccc(C(=O)C2=C(O)C(=O)N(c3ccc(C)nn3)C2c2ccc(OC(F)(F)F)cc2)cc1 (centres undefined) | 265
23 | COC(=O)c1cc2c(Cl)cc(F)c(-n3c(=O)cc(C(F)(F)F)n(C)c3=O)c2o1 | 194 to 196
24 | c1ccc2c(c1)OCCc1c-2n(Cc2ccc(OCCCN3CCCCC3)cc2)c2ccccc12 | 129 to 130
25 | Cc1cc(-c2ccc(Cl)cc2)nc(-n2cnc(-c3ccc(S(N)(=O)=O)s3)c2)n1 | 281

Row | SMILES | melting point [°C]
26 | CCSc1cc(C)nc(SCC)c1NC(=O)CSc1nc2ccccc2s1 | 119 to 120
27 | CCCCCCC(CCC)OC1(C(C)=O)C=CC=CC1 (centres undefined) | 38 to 39
28 | O=c1[nH]c2cc(Cl)cc(Cl)c2c(=O)n1-c1ccccc1 | 314 to 319
29 | COCC1CN(c2cc3c(cc2F)c(=O)c(C(=O)O)cn3C2CC2)CCN1 (centres undefined) | 215 to 216
30 | CN1OCCN(c2ccc(Cl)c(C(F)(F)F)c2)C1=O | 72 to 73
31 | Cn1c(C(F)(F)F)cc(=O)n(-c2ccc(Cl)c(C=C(Cl)C(=O)O)c2)c1=O | 216 to 217
32 | N#Cc1ccc2[nH]cc(CCNCC(F)(F)F)c2c1 | 102
33 | COc1cc2c(cc1C(F)(F)F)N(C(=O)Nc1ccc(C)c(-c3cnccc3C)c1)CC2 | 138 to 140
34 | CC(C)(C)OC(=O)N1CCC(c2ccc3nc(-c4ccc(S(C)(=O)=O)cc4F)oc3c2)CC1 | 166 to 169
35 | CC1OC(n2cc(F)c(NC(=O)c3ccoc3)nc2=O)C(O)C1O (centres undefined) | 173 to 174
36 | CC(C)Oc1c(C(=O)Nc2ccccc2)oc2ccc(Cl)cc12 | 82 to 83
37 | C#CCOc1ccc2c(C)cc(=O)oc2c1C(=O)C=Cc1cc(OC)c(OC)c(OC)c1 | 191 to 193
38 | Nc1ccc([N+](=O)[O-])cc1CO | 141 to 142
39 | Cc1c(C)c2c(c(C)c1NC(=O)NCCN(C)C)C(c1ccc(C(C)C)cc1)CO2 (centres undefined) | 133 to 134
40 | CCCCCCCCCCCCCCCCCCOc1ccc(C(=O)OCC)cc1[N+](=O)[O-] | 48 to 56
41 | O=C(Nc1cccc2c1ncc1ccc(O)cc12)c1c(Cl)cccc1Cl | > 250
42 | Oc1cc(O)cc(Oc2nnn[nH]2)c1 | 191 to 193
43 | COC(=O)c1ccccc1C(=O)c1ccc(O)cc1 | 147 to 149
44 | Cn1c(=O)n(C)c2cc3c(N4CCN(C(=O)Nc5ccc([N+](=O)[O-])cc5)CC4)ncnc3cc21 | 299 to 300
45 | O=C(Cn1ccnc1)c1ccccc1O | 195 to 200
46 | CC(=O)N=c1sccn1CC(=O)c1cccc(NC(C)=O)c1 | 224 to 226
47 | CN(C)C(=O)c1ccc(NC=O)cc1S(N)(=O)=O | 192 to 193
48 | COc1ccc2ncc(N)c(Nc3ccccc3Cl)c2c1 | 120 to 123
49 | O=C(O)CCC(=O)Nc1cc(C(=O)O)cc([N+](=O)[O-])c1 | 220 to 221
50 | C[Si](C)(C)OC1(C(=O)c2ccccc2)CC2CCC(C1)N2CCCC(c1ccc(F)cc1)c1ccc(F)cc1 (centres undefined) | 111 to 113

Row | SMILES | melting point [°C]
51 | CCCCCCCCCCCCCCCc1cccc(OCC)c1C1NC(=O)NC(C)=C1C(=O)OCC (centres undefined) | 99 to 100
52 | COc1ccc(-c2nccc3c(CC(=O)O)cccc23)cc1 | 210 to 211
53 | COc1cc2c(cc1O)C(=O)C1c3c(cc(OC(C)C)c(OC)c3-2)CCN1C (centres undefined) | 240 to 242
54 | N#CN=C(Nc1ccncc1)NC1CCCCCCC1 | 198 to 199
55 | CC(Oc1cccc(Cl)c1)c1ccnc2ncnn12 (centres undefined) | 124 to 126
56 | S=C1CN=C(c2ccccc2Cl)c2cc(CCc3ccc(Cl)cc3)sc2N1 | 201 to 203
57 | CCOC(=O)C(CC(=O)c1ccc(OC)cc1)(NC(C)=O)C(=O)OCC | 120 to 122
58 | OC(CCCCCOc1cccc(Cl)c1)c1cccc(OCc2ccc3ccccc3n2)c1 (centres undefined) | 69.5 to 70.5
59 | COC(=O)C1=C(C)NC(C)=C(C(C)=O)C1c1ccccc1Cl (centres undefined) | 183 to 184
60 | COC(=O)CCCCC#Cc1cc(Cl)ccc1N | 66
61 | CCOC(=O)C1=Cc2cc(Cl)cc(-c3nc4ccccc4[nH]3)c2OC1C(F)(F)F (centres undefined) | > 300
62 | Cc1cc(CC(=O)O)cc2c1NC(C(F)(F)F)CC2 (centres undefined) | 135 to 136
63 | COc1cccc(C(O)c2cc3ccccc3s2)c1 (centres undefined) | 63 to 65
64 | Nc1nc2c(s1)CCN(CC=Cc1cccc(F)c1)CC2 | 128 to 132
65 | O=C1OC(=O)c2c3ccccc3c(Cl)c3cccc1c23 | 269 to 271
66 | Cc1cc(Nc2ccnc(Cl)n2)ccc1F | 130 to 131
67 | COC(=O)c1cc(=NS(=O)(=O)c2ccccc2)c2ccccc2o1 | 144 to 146
68 | OCc1c[nH]c2c1ccc1c3ccccc3[nH]c12 | > 295
69 | CCCCCCCCCCCCS(=O)(=O)Nc1cc(-c2cc3cc(F)c(F)cc3[nH]2)ccc1OC | 148 to 149
70 | CCCc1ncnc(O)c1Cc1ccc(-c2ccccc2C#N)cc1 | 158
71 | CS(=O)(=O)c1cc([N+](=O)[O-])c(C(N)=O)cc1N1CC1 | 222 to 224
72 | COc1ccc(CNc2nnc(-c3ccc(C(F)(F)F)cc3)cc2C(F)(F)F)cc1 | 101 to 103
73 | CCOC(=S)c1ncncc1C | 99 to 100
74 | O=Cc1cc2ccc3c4ccccc4ccc3c2s1 | 209 to 210
75 | CC(=O)NC(C)(C)c1ccc(-c2nc(Nc3ccc(F)cc3)ncc2C#N)cc1 | 212 to 216

Row | SMILES | melting point [°C]
76 | CCCNc1ccc(C(=O)O)cc1[N+](=O)[O-] | 208
77 | NS(=O)(=O)c1ccc(-c2cccn2-c2ccc(Cl)cc2)cc1 | 179 to 181
78 | CNc1nc(-c2cccc(NC(=O)c3cccc(O)c3)c2)c2cc(OC)c(OC)cc2n1 | 265 to 267
79 | Clc1ccc2ccc(/C=C/c3cccc(CN4CCc5cccc(CCc6nnn[nH]6)c54)c3)nc2c1 | 141 to 144
80 | CS(=O)(=O)c1nc2ccccn2c1S(N)(=O)=O | 214 to 216
81 | CC(CNc1ccc(C(=O)O)cc1)Oc1ccc(F)cc1 (centres undefined) | 171 to 172
82 | Cc1cccc(Cl)c1OC1CN(C(c2ccccc2)c2ccccc2)C1 | 92 to 93
83 | CC(C)Oc1cc(-n2nc(C(C)(C)C)oc2=O)ccc1F | 72.5 to 74
84 | COc1ccc(C(O)CCN2CC=C(c3ccc(Cl)cc3)CC2)cc1 (centres undefined) | 116 to 118
85 | CCc1nc2c([nH]1)C(=O)N1CCN=C1N2Cc1ccc(Cl)cc1 | 278 to 279
86 | CN(C1CCCOc2ccccc21)S(C)(=O)=O (centres undefined) | 143 to 145
87 | O=S(=O)(CCOc1ccc(Cl)cc1)c1ccc(Cl)cc1 | 108
88 | c1cnn(-c2cc(-n3cccn3)ncn2)c1 | 133 to 134
89 | O=C1CCC(N2Cc3c(OCc4ccc(CN5CCN(CC(F)(F)F)CC5)cc4)cccc3C2=O)C(=O)N1 (centres undefined) | 133 to 135
90 | CN(C(=O)Cn1c(-c2ccc(Cl)cc2)nc2cccnc21)c1ccccc1 | 170 to 171
91 | O=C(Nc1ccc(Cl)c(Cl)c1)ONC1=Nc2ccc([N+](=O)[O-])cc2C(c2ccccc2Cl)=NC1 | 190 to 192
92 | O=C(O)CCN1C(=O)c2ccc(C(=O)O)cc2C1=O | 240 to 242
93 | CCOC(=O)C1=CNc2ccc(C(F)(F)F)cc2CC1c1ccccc1Cl (centres undefined) | 190 to 192
94 | CCc1ccc2oc(C(=O)Nc3ccc(-c4ccc(S(=O)(=O)NC(C(=O)O)C(C)C)cc4)cc3)c(C)c2c1OC (centres undefined) | 225 to 228
95 | CCOC(=O)c1cnoc1-c1ccc(Cl)cc1 | 58 to 60
96 | CCn1cc(C(=O)O)c(=O)c2cc(F)c(N3CCN(S(=O)(=O)c4ccccc4)CC3)c(F)c21 | 234 to 235
97 | COc1cc(C2=CCN(S(=O)(=O)C(C)(C)C(=O)NO)CC2)ccc1-c1ccccc1 | 156 to 158
98 | Cc1ccc(N2Cc3ccccc3P2(=O)c2ccccc2)cc1 (centres undefined) | 197 to 199
99 | CCCCCCCCCCCCN(CCCCCCCCCCCC)c1ccccc1C1=c2ccc(=C3C(=O)c4ccccc4C3=O)cc2OC1=O | 155
